Like-named read-outs stand apart in the source and are kept apart here.
System: HIV-1 (JRCSF)
Assay: Anti-HIV activity in MaRBLE cells infected with HIV-1 (JRCSF), luciferase readout
Assay type: cell-based
Details: MaRBLE cells (human T lymphocyte-derived HPB-M(a)) infected with HIV-1 (JRCSF), 7 days culture, rate of viral proliferation by luciferase activity, read-out: Anti-HIV activity IC50
Method: This test was conducted with reference to Journal of Clinical Microbiology, 2007, Vol. 45, p. 477-487.
The anti-HIV activity was evaluated using MaRBLE cells in which a luciferase gene to be expressed under the control of HIV-1 LTR and a CCR5 gene, etc. were introduced in human T lymphocyte-derived HPB-M(a).
A fresh medium or each appropriately diluted test compound was dispensed to 96-well plates to prepare drug solution-containing plates.
The MaRBLE cells were suspended in RPMI1640 containing 10% FCS (fetal calf serum) and penicillin/streptomycin and infected with HIV-1 (JRCSF). Then, the cells were inoculated to the drug solution-containing plates (1×10^5 cells/well). The same number of uninfected cells were inoculated as a control group to the drug solution-containing plates.
After culture at 37° C. for 7 days in a 5% CO2 atmosphere, the intracellular luciferase activity was measured using Steady-Glo Luciferase assay system (Promega Corp.).
The rate of viral proliferation was determined according to the following expression:
Rate of viral proliferation(%)=(A/B)×100
A=(Firefly luciferase activity of the compound-supplemented well)−(Firefly luciferase activity of the uninfected cells)
B=(Firefly luciferase activity of the compound-free well)−(Firefly luciferase activity of the uninfected cells)
IC50 of the compound was calculated by a plot with concentration as the logarithm and the rate of viral proliferation as the real part using the FORECAST function (linear regression method) of Microsoft Office Excel 2003.

[1] = Human immunodeficiency virus 1, 168 h

| Compound | IC50 [1] [µM] | IC50 [µM] |
| --- | --- | --- |
| Cc1ncnc2c1c(NCc1ccc(N(C)C)cc1)cc(=O)n2O [Example 30, 5-((4-(dimethylamino)benzyl)amino)-8-hydroxy-4-methylpyrido[2,3-d]pyrimidin-7(8H)-one] | 0.076 |  |
| Cc1ncnc2c1c(NCc1ncc[nH]1)cc(=O)n2O [Example 154, 8-hydroxy-5-(((1H-imidazol-2-yl)methyl)amino)-4-methylpyrido[2,3-d]pyrimidin-7(8H)-one] | 0.72 |  |
| O=c1cc(NC2Cc3ccccc3C2)c2cncnc2n1O [Example 10] | 0.53 |  |
| Cc1ncnc2c1c(NC(C)c1cccnc1)cc(=O)n2O (stereo not shown) [Example 53, 8-hydroxy-4-methyl-5-((1-(pyridin-3-yl)ethyl)amino)pyrido[2,3-d]pyrimidin-7(8H)-one] | 0.08 |  |
| Cc1ncnc2c1c(NCc1ccc3c(c1)OCCO3)cc(=O)n2O [Example 52, 5-(((2,3-dihydro-1,4-benzodioxin-6-yl)methyl)amino)-8-hydroxy-4-methylpyrido[2,3-d]pyrimidin-7(8H)-one] | 0.02 |  |
| Cc1ncnc2c1c(NCc1ccc(-c3ccccc3)nc1)cc(=O)n2O [Example 94, 8-hydroxy-4-methyl-5-(((6-phenylpyridin-3-yl)methyl)amino)pyrido[2,3-d]pyrimidin-7(8H)-one] | 0.043 |  |
| Cc1ncnc2c1c(NCCc1ccccn1)cc(=O)n2O [Example 92, 8-hydroxy-4-methyl-5-((2-(pyridin-2-yl)ethyl)amino)pyrido[2,3-d]pyrimidin-7(8H)-one] | 0.031 |  |
| Cc1ncnc2c1c(NCc1ccc(N)cc1)cc(=O)n2O [Example 125, 5-((4-aminobenzyl)amino)-8-hydroxy-4-methylpyrido[2,3-d]pyrimidin-7(8H)-one] | 0.063 |  |
| Cc1ncnc2c1c(NCc1cccnc1N1CCOCC1)cc(=O)n2O [Example 57, 8-hydroxy-4-methyl-5-(((2-(morpholin-4-yl)pyridin-3-yl)methyl)amino)pyrido[2,3-d]pyrimidin-7(8H)-one] | 0.085 |  |
| COc1ccc(CNc2cc(=O)n(O)c3ncnc(C)c23)cc1 [Example 32, 8-hydroxy-5-((4-methoxybenzyl)amino)-4-methylpyrido[2,3-d]pyrimidin-7(8H)-one] | 0.029 |  |
| CN(C)c1ccc(CNc2cc(=O)n(O)c3ncncc23)cc1 [Example 102, 5-((4-(dimethylamino)benzyl)amino)-8-hydroxypyrido [2,3-d]pyrimidin-7(8H)-one] | 0.21 |  |
| Cc1ncnc2c1c(NCc1ccc(NS(C)(=O)=O)cc1)cc(=O)n2O [Example 128, N-(4-(((8-hydroxy-4-methyl-7-oxo-7,8-dihydropyrido[2,3-d]pyrimidin-5-yl)amino)methyl)phenyl)methanesulfonamide] | 0.27 |  |
| Cc1ncnc2c1c(N)cc(=O)n2O [Example 127, 5-amino-8-hydroxy-4-methylpyrido[2,3-d]pyrimidin-7(8H)-one] | 0.15 |  |
| O=c1cc(NCc2ccccc2)c2c(-c3ccccc3)ncnc2n1O [Example 60, 5-(benzylamino)-8-hydroxy-4-phenylpyrido[2,3-d]pyrimidin-7(8H)-one] | 0.19 |  |
| Cc1ncnc2c1c(NCc1cccc(CN)c1)cc(=O)n2O [Example 132, 5-((3-(aminomethyl)benzyl)amino)-8-hydroxy-4-methylpyrido[2,3-d]pyrimidin-7(8H)-one] | 0.21 |  |
| Cc1ncnc2c1c(NCc1ccc(OCC(F)(F)F)nc1)cc(=O)n2O [Example 58, 8-hydroxy-4-methyl-5-(((6-(2,2,2-trifluoroethoxy)pyridin-3-yl)methyl)amino)pyrido[2,3-d]pyrimidin-7(8H)-one] | 0.094 |  |
| COc1ncccc1CNc1cc(=O)n(O)c2ncnc(C)c12 [Example 157, 8-hydroxy-5-(((2-methoxypyridin-3-yl)methyl)amino)-4-methylpyrido[2,3-d]pyrimidin-7(8H)-one] | 0.044 |  |
| Cc1ncnc2c1c(NCc1ccc(N)nc1)cc(=O)n2O [Example 162, 5-(((6-aminopyridin-3-yl)methyl)amino)-8-hydroxy-4-methylpyrido[2,3-d]pyrimidin-7(8H)-one] | 0.067 |  |
| Cc1ncnc2c1c(O)c(C(=O)NCc1ccccc1)c(=O)n2O [Example 111, N-benzyl-5,8-dihydroxy-4-methyl-7-oxo-7,8-dihydropyrido[2,3-d]pyrimidine-6-carboxamide] | 0.0084 |  |
| Cc1ncnc2c1c(NCc1ccc(Oc3ccccc3)nc1)cc(=O)n2O [Example 146, 8-hydroxy-4-methyl-5-(((6-phenoxypridin-3-yl)methyl)amino)pyrido[2,3-d]pyrimidin-7(8H)-one] |  | 0.1 |

| Compound | IC50 [1] [µM] | IC50 [µM] |
| --- | --- | --- |
| Cc1ncnc2c1c(NCc1ccccc1NS(C)(=O)=O)cc(=O)n2O [Example 122, N-(2-(((8-hydroxy-4-methyl-7-oxo-7,8-dihydropyrido[2,3-d]pyrimidin-5-yl)amino)methyl)phenyl)methanesulfonamide] | 0.1 |  |
| O=c1cc(O)c2c(Cc3ccccc3)ncnc2n1O [Example 66, 4-benzyl-5,8-dihydroxypyrido[2,3-d]pyrimidin-7(8H)-one] | 0.56 |  |
| Cc1ncnc2c1c(NCc1ccccn1)cc(=O)n2O [Example 150, 8-hydroxy-4-methyl-5-(((pyridin-2-yl)methyl)amino)pyrido[2,3-d]pyrimidin-7(8H)-one] | 0.1 |  |
| Cc1ncnc2c1c(NCc1ccccc1)cc(=O)n2O [Example 22, 5-(benzylamino)-8-hydroxy-4-methylpyrido[2,3-d]pyrimidin-7(8H)-one] | 0.047 |  |
| Cc1ncnc2c1c(NCc1ccc3cc[nH]c3c1)cc(=O)n2O [Example 88, 8-hydroxy-5-(((1H-indol-6-yl)methyl)amino)-4-methylpyrido[2,3-d]pyrimidin-7(8H)-one] | 0.063 |  |
| Cc1cncc(CNc2cc(=O)n(O)c3ncnc(C)c23)c1 [Example 136, 8-hydroxy-4-methyl-5-(((5-methylpyridin-3-yl)methyl)amino)pyrido[2,3-d]pyrimidin-7(8H)-one] | 0.12 |  |
| Cc1ncnc2c1c(NCc1ccc(O)cc1)cc(=O)n2O [Example 110, 8-hydroxy-5-((4-hydroxybenzyl)amino)-4-methylpyrido[2,3-d]pyrimidin-7(8H)-one] | 0.049 |  |
| Cc1ncnc2c1c(NCc1cccc(OC(F)(F)F)c1)cc(=O)n2O [Example 45, 8-hydroxy-4-methyl-5-((3-(trifluoromethoxy)benzyl)amino)pyrido[2,3-d]pyrimidin-7(8H)-one] | 0.17 |  |
| O=c1c(-c2ccccc2)c(O)c2c(-c3ccccc3)ncnc2n1O [Example 67, 5,8-dihydroxy-4,6-diphenylpyrido[2,3-d]pyrimidin-7(8H)-one] | 0.16 |  |
| Cc1ncnc2c1c(NCc1cc3ccccc3[nH]1)cc(=O)n2O [Example 95, 8-hydroxy-5-(((1H-indol-2-yl)methyl)amino)-4-methylpyrido[2,3-d]pyrimidin-7(8H)-one] | 0.11 |  |
| COc1ccc(CNc2cc(=O)n(O)c3ncnc(C)c23)c(OC)c1 [Example 38, 5-((2,4-dimethoxybenzyl)amino)-8-hydroxy-4-methylpyrido[2,3-d]pyrimidin-7(8H)-one] | 0.042 |  |
| Cc1ncnc2c1c(NCc1ccc3c(c1)OCO3)cc(=O)n2O [Example 49] | 0.061 |  |
| Cc1ncnc2c1c(NCc1ccc(C(C)C)cc1)cc(=O)n2O [Example 152, 8-hydroxy-5-((4-isopropylbenzyl)amino)-4-methylpyrido[2,3-d]pyrimidin-7(8H)-one] | 0.095 |  |
| Cc1ncnc2c1c(O)c(-c1ccccc1)c(=O)n2O [Example 64, 5,8-dihydroxy-4-methyl-6-phenylpyrido[2,3-d]pyrimidin-7(8H)-one] | 0.35 |  |
| Cc1ncnc2c1c(NCc1ccc(N3CCCCC3)nc1)cc(=O)n2O [Example 56, 8-hydroxy-4-methyl-5-(((6-(piperidin-1-yl)pyridin-3-yl)methyl)amino)pyrido[2,3-d]pyrimidin-7(8H)-one] | 0.9 |  |
| O=c1cc(NCc2ccccc2)c2cncnc2n1O [Example 2, 5-(benzylamino)-8-hydroxypyrido[2,3-d]pyrimidin-7(8H)-one] | 0.12 |  |
| CC(=O)Nc1ccc(CNc2cc(=O)n(O)c3ncnc(C)c23)cc1 [Example 142, N-(4-(((8-hydroxy-4-methyl-7-oxo-7,8-dihydropyrido[2,3-d]pyrimidin-5-yl)amino)methyl)phenyl)acetamide] | 0.13 |  |
| Cc1ncnc2c1c(NC(C)c1ccccn1)cc(=O)n2O (stereo not shown) [Example 165, 8-hydroxy-4-methyl-5-((1-(pyridin-2-yl)ethyl)amino)pyrido[2,3-d]pyrimidin-7(8H)-one] | 0.16 |  |
| O=c1cc(NCc2cccnc2)c2cncnc2n1O [Example 18, 8-hydroxy-5-((pyridin-3-ylmethyl)amino)pyrido[2,3-d]pyrimidin-7(8H)-one] | 0.23 |  |
| Cc1ncnc2c1c(NCc1cnccc1C(F)(F)F)cc(=O)n2O [Example 133, 8-hydroxy-4-methyl-5-(((4-(trifluoromethyl)pyridin-3-yl)methyl)amino)pyrido[2,3-d]pyrimidin-7(8H)-one] | 0.059 |  |
